Assay results reported in patent publication US8383622B2 (priority 2007, dated 2013).

Test: log k′ (degree of lipophilic character) by gradient HPLC
Format: physicochemical
Conditions: XTerra MS C18 column; acetonitrile/pH6.8 buffer gradient 5:95-95:5/20 min
Experimental: As to each compound, the measurement results of NMR or log k′ were disclosed.
log k′ is a value which means degree of the lipophilic character, and is calculated by the following formula. log k′=log(tR−t0)/t0 • tR: retention time of compound under gradient condition • t0: retention time of standard material not retained in column
XTerra MS C18 5 μm, 2.1×100 mm column (made by Waters) was used for measurement. The elution was a straight line inclination of acetonitrile/pH6.8 buffer (5:95˜95:5/20 min) at flow velocity 0.25 mL/min.

Row | SMILES | log k′
1 | CC(C)COc1c(C(=O)NC2CCCCCCCCC2)cnn1/C=C/C(C)(C)C(N)=O [Compound I-2] | 1.014
2 | COC(=O)NC(C)(C)/C=C/n1ncc(C(=O)NC2CCCCCCCCC2)c1OCC(C)C [Compound I-3] | 1.066
3 | CC(=O)NC(C)(C)/C=C/n1ncc(C(=O)N[C@H]2C3CCCC2C[C@H](C(N)=O)C3)c1OCC(C)C [Compound I-5] | 0.795
4 | Cc1nnc(C(C)(C)/C=C/n2ncc(C(=O)N[C@H]3C4CC5CC3C[C@](OC(N)=O)(C5)C4)c2OCC(C)C)o1 [Compound I-8] | 0.883
5 | CC(=O)NC(C)(C)/C=C/n1ncc(C(=O)N[C@H]2C3CC4CC2C[C@](OC(N)=O)(C4)C3)c1OCC(C)C [Compound I-10] | 0.798
6 | CC(=O)NC(C)(C)CCn1ncc(C(=O)N[C@H]2C3CC4CC2C[C@](OC(N)=O)(C4)C3)c1OCC(C)C [Compound I-11] | 0.831
7 | CC(=O)NC(C)(C)/C=C/n1ncc(C(=O)NC23CCC(C(N)=O)(CC2)C3)c1OCC(C)C [Compound I-12] | 0.763
8 | COC(=O)NC(C)(C)/C=C/n1ncc(C(=O)NC23CCC(C(N)=O)(CC2)C3)c1OCC(C)C [Compound I-13] | 0.822
9 | C=CCC1C2CCC(C2)C1NC(=O)c1cnn(/C=C/C(C)(C)NC(C)=O)c1OCC(C)C (stereo not drawn) [Compound I-14] | 0.981
10 | CC(=O)NC(C)(C)CCn1ncc(C(=O)N[C@H]2C3CC4CC2C[C@](CO)(C4)C3)c1OCC(C)C [Compound I-16] | 0.842
11 | COC(=O)NC(C)(C)/C=C/n1ncc(C(=O)N[C@H]2C3CC4CC2C[C@](COC(N)=O)(C4)C3)c1OCC(C)C [Compound I-17] | 0.916
12 | CC(C)COc1c(C(=O)N[C@H]2C3CC4CC2C[C@](OC(N)=O)(C4)C3)cnn1/C=C/C(C)(C)C(=O)NC(N)=O [Compound I-18] | 0.866
13 | COC(=O)NC(C)(C)/C=C/n1ncc(C(=O)N[C@H]2C3CC4CC2C[C@](CO)(C4)C3)c1OCC(C)C [Compound I-19] | 0.907
14 | CCC(=O)N[C@]12CC3CC(C1)[C@@H](NC(=O)c1cnn(/C=C/C(C)(C)C(N)=O)c1OCC(C)C)C(C3)C2 [Compound I-20] | 0.845
15 | CCC(=O)N[C@]12CC3CC(C1)[C@@H](NC(=O)c1cnn(/C=C/C(C)(C)NC(=O)OC)c1OCC(C)C)C(C3)C2 [Compound I-21] | 0.909
16 | CC(C)COc1c(C(=O)N[C@H]2C3CC4CC2C[C@](OC(N)=O)(C4)C3)cnn1/C=C/C(C)(C)N1CCOC1=O [Compound I-22] | 0.879
17 | COC(=O)NC(C)(C)/C=C/n1ncc(C(=O)N[C@H]2C3CC4CC2C[C@](CO)(C4)C3)c1OC(C)C [Compound I-23] | 0.864
18 | CCC(=O)NC(C)(C)/C=C/n1ncc(C(=O)N[C@H]2C3CC4CC2C[C@](OC(N)=O)(C4)C3)c1OCC(C)C [Compound I-24] | 0.876
19 | CC(C)COc1c(C(=O)N[C@H]2C3CC4CC2C[C@](O)(C4)C3)cnn1/C=C/C(C)(C)NC(=O)C(C)C [Compound I-25] | 0.87
20 | CC(C)COc1c(C(=O)N[C@H]2C3CC4CC2C[C@](O)(C4)C3)cnn1/C=C/C(C)(C)NC(=O)CC(C)C [Compound I-26] | 0.895
21 | CC(C)COc1c(C(=O)N[C@H]2C3CC4CC2C[C@](OC(N)=O)(C4)C3)cnn1/C=C/C(C)(C)NC(=O)C(C)C [Compound I-27] | 0.903
22 | CC(C)COc1c(C(=O)N[C@H]2C3CC4CC2C[C@](OC(N)=O)(C4)C3)cnn1/C=C/C(C)(C)NC(=O)CC(C)C [Compound I-28] | 0.927
23 | CC(=O)NC(C)(C)/C=C/n1ncc(C(=O)N[C@H]2C3CC4CC2C[C@](CO)(C4)C3)c1OC(C)C [Compound I-31] | 0.819

Row | SMILES | log k′
24 | COC(=O)NC(C)(C)/C=C/n1ncc(C(=O)N[C@H]2C3CCCC2C[C@@H](C#N)C3)c1OCC(C)C [Compound I-33] | 0.955
25 | CCCC(=O)NC(C)(C)/C=C/n1ncc(C(=O)N[C@H]2C3CC4CC2C[C@](O)(C4)C3)c1OCC(C)C [Compound I-34] | 0.877
26 | CC(C)COc1c(C(=O)N[C@H]2C3CC4CC2C[C@](O)(C4)C3)cnn1/C=C/C(C)(C)NC(=O)C1CCCC1 [Compound I-35] | 0.921
27 | CC(=O)NC(C)(C)/C=C/n1ncc(C(=O)N[C@H]2C3CCCC2C[C@@H](C(N)=O)C3)c1OCC(C)C [Compound I-42] | 0.805
28 | CC(=O)NC(C)(C)/C=C/n1ncc(C(=O)N[C@H]2C3CCCC2C[C@@H](CO)C3)c1OCC(C)C [Compound I-43] | 0.851
29 | CC(=O)NC(C)(C)/C=C/n1ncc(C(=O)N[C@H]2C3CCCC2C[C@@H](COC(N)=O)C3)c1OCC(C)C [Compound I-45] | 0.865
30 | COC(=O)NC(C)(C)/C=C/n1ncc(C(=O)N[C@H]2C3CCCC2C[C@@H](COC(N)=O)C3)c1OCC(C)C [Compound I-46] | 0.913
31 | CC(C)COc1c(C(=O)N[C@H]2C3CC4CC2C[C@](OC(N)=O)(C4)C3)cnn1/C=C/C(C)(C)NC(=O)C1CCCC1 [Compound I-49] | 0.945
32 | CC(C)COc1c(C(=O)N[C@H]2C3CC4CC2C[C@](OC(N)=O)(C4)C3)cnn1/C=C/C(C)(C)NC(=O)CCC1CCCC1 [Compound I-50] | 0.989
33 | COCC(=O)NC(C)(C)/C=C/n1ncc(C(=O)N[C@H]2C3CC4CC2C[C@](OC(N)=O)(C4)C3)c1OCC(C)C [Compound I-51] | 0.882
34 | COC(=O)N[C@]12CC3CC(C1)[C@@H](NC(=O)c1cnn(/C=C/C(C)(C)NC(C)=O)c1OCC(C)C)C(C3)C2 [Compound I-54] | 0.886
35 | CC(=O)NC[C@]12CC3CC(C1)[C@@H](NC(=O)c1cnn(/C=C/C(C)(C)NC(C)=O)c1OCC(C)C)C(C3)C2 [Compound I-56] | 0.838
36 | CC(=O)NC(C)(C)CCn1ncc(C(=O)N[C@H]2C3CC4CC2C[C@](COC(N)=O)(C4)C3)c1OCC(C)C [Compound I-57] | 0.852
37 | COC(=O)NC(C)(C)CCn1ncc(C(=O)N[C@H]2C3CC4CC2C[C@](COC(N)=O)(C4)C3)c1OCC(C)C [Compound I-58] | 0.899
38 | CCONC(=O)[C@]12CC3CC(C1)[C@@H](NC(=O)c1cnn(/C=C/C(C)(C)NC(C)=O)c1OCC(C)C)C(C3)C2 [Compound I-59] | 0.833
39 | CONC(=O)[C@]12CC3CC(C1)[C@@H](NC(=O)c1cnn(/C=C/C(C)(C)NC(C)=O)c1OCC(C)C)C(C3)C2 [Compound I-60] | 0.813
40 | CNC(=O)C(C)(C)/C=C/n1ncc(C(=O)N[C@H]2C3CC4CC2C[C@](OC(N)=O)(C4)C3)c1OCC(C)C [Compound I-61] | 0.841
41 | CONC(=O)C(C)(C)/C=C/n1ncc(C(=O)N[C@H]2C3CC4CC2C[C@](O)(C4)C3)c1OCC(C)C [Compound I-62] | 0.794
42 | CC(=O)NCC(C)(C)/C=C/n1ncc(C(=O)N[C@H]2C3CC4CC2C[C@](O)(C4)C3)c1OCC(C)C [Compound I-64] | 0.814
43 | CONC(=O)C(C)(C)/C=C/n1ncc(C(=O)N[C@H]2C3CC4CC2C[C@](OC(N)=O)(C4)C3)c1OCC(C)C [Compound I-65] | 0.838
44 | CNC(=O)OC[C@]12CC3CC(C1)[C@@H](NC(=O)c1cnn(/C=C/C(C)(C)NC(C)=O)c1OCC(C)C)C(C3)C2 [Compound I-66] | 0.886
45 | CC(=O)NC(C)(C)/C=C/n1ncc(C(=O)N[C@H]2C3CC4CC2C[C@](C(=O)NC(N)=O)(C4)C3)c1OCC(C)C [Compound I-67] | 0.82
